From patent publication US8362249B2, “CXCR3 receptor antagonists” (Boehringer Ingelheim International GmbH, priority 2009, dated 2013)

Biological target: CXCR3 (Macaca fascicularis, UniProt A0A2K5UV19)
Assay: functional cellular assay measuring calcium flux in CXCR3 transfected cells (block of CXCR3/IP-10 interaction)
Assay type: cell-based
Settings: IP-10 induced intracellular calcium flux; Cyno-CHO cells stably expressing recombinant CXCR3 and G-alpha-16
Protocol: Compounds are assessed for the ability to block the interaction of CXCR3 and IP-10 in a functional cellular assay measuring calcium flux in CXCR3 transfected cells.
Cyno-CHO cells, stably expressing recombinant CXCR3 and G-alpha-16 are grown in F12 medium (Mediatech #45000-360) supplemented with 10% (V/V) FBS (Mediatech #35-01500), 1% Geneticin (Invitrogen #10131-027) and 0.2% Zeocin (Invitrogen #R250-05). The cells are spun down and re-suspended in growth media to a concentration of 4.8 E5 cells/mL. 25 microL of cell suspension is added to each well of a BD-384-well TC treated plate, providing 12,000 cells/well. The plate is incubated at 37° C./5% CO2 overnight. On the day of the assay, the plates are removed, the media is flicked out and 25 microL of Ca-4 dye in assay buffer (HBSS, 10 mM HEPES ph 7.4), containing 2 mM probenacid is added to each well. The cell assay plates are then incubated at 37° C./5% CO2 for one hour.
Test compounds are dissolved in DMSO and diluted to 1.045 mM in DMSO. Just prior to assay, 2.75 microL of appropriately diluted test compound are added to each well of a 384 well plate containing 45 microL of HBSS buffer. After mixing, 5 microL of diluted compound are added to each well of the cell assay plate for a final assay concentration of 10 microM. The plate is incubated at room temperature for 15 min. 10 microL of IP-10 stock solution in HBSS (4× EC80 concentration) are added to each well of the cell assay plate except those cells reserved as blank wells containing buffer only. Intracellular calcium flux is recorded on the HAMAMTSU FDSS6000, using excitation at 480 nm and emission at 540 nm. Data are analyzed using Activity Base software.
In general, the preferred potency range (IC50) of compounds in the above assay is between 1 nM to 3 μM, and the most preferred potency range is 1 nM to 20 nM.

CXCR3, sequence (A0A2K5UV19 entry or part of it): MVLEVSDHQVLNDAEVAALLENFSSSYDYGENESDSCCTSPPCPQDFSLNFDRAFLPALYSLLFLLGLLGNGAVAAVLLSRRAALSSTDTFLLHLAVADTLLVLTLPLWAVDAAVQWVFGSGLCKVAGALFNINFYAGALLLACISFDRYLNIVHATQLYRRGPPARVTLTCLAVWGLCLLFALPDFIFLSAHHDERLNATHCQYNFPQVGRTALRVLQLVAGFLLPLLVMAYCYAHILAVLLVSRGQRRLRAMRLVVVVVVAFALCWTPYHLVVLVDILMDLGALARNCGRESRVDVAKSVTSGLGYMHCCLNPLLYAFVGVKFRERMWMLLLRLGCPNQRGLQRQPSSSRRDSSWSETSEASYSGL

SMILES | IC50 [nM]
Cc1nn(CC(=O)N2CCN(c3ccccc3C(=O)Nc3ccncc3)CC2)c(=O)c2ccccc12 [2-{4-[2-(4-Methyl-1-oxo-1H-phthalazin-2-yl)-acetyl]-piperazin-1-yl}-N-pyridin-4-yl-benzamide] | 5.4
Cc1cc(C)n(CC(=O)N2CCN(c3ccccc3C(=O)Nc3cccc(Cl)c3)CC2)n1 [N-(3-Chloro-phenyl)-2-{4-[2-(3,5-dimethyl-pyrazol-1-yl)-acetyl]-piperazin-1-yl}-benzamide] | 3.3
Cc1cc(C)n(CC(=O)N2CCN(c3ccccc3C(=O)Nc3cnc4c(c3)c(=O)n(C)c(=O)n4C)CC2)n1 [N-(1,3-Dimethyl-2,4-dioxo-1,2,3,4-tetrahydro-pyrido[2,3-d]pyrimidin-6-yl)-2-{4-[2-(3,5-dimethyl-pyrazol-1-yl)-acetyl]-piperazin-1-yl}-benzamide] | 11.5
Cc1cc(C)n(CC(=O)N2CCN(c3ccccc3C(=O)Nc3nc(C(C)(C)C)c(C#N)s3)CC2)n1 [N-(4-tert-Butyl-5-cyano-thiazol-2-yl)-2-{4-[2-(3,5-dimethyl-pyrazol-1-yl)-acetyl]-piperazin-1-yl}-benzamide] | 18.5
Cc1cc(C)n(CC(=O)N2CCC(c3ccc(Cl)cc3NC(=O)c3ccccc3)CC2)n1 [N-(5-Chloro-2-{1-[2-(3,5-dimethyl-pyrazol-1-yl)-acetyl]-piperidin-4-yl}-phenyl)-benzamide] | 18.5
Cc1cc(C)n(CC(=O)N2CCN(c3ccccc3C(=O)Nc3cc(C(C)(C)C)n[nH]3)CC2)n1 [N-(5-tert-Butyl-2H-pyrazol-3-yl)-2-{4-[2-(3,5-dimethyl-pyrazol-1-yl)-acetyl]-piperazin-1-yl}-benzamide] | 4.8
Cc1cc(C)n(CC(=O)N2CCN(c3ccccc3NC(=O)c3ccc(Cl)cc3)CC2)n1 [4-Chloro-N-(2-{4-[2-(3,5-dimethyl-pyrazol-1-yl)-acetyl]-piperazin-1-yl}-phenyl)-benzamide] | 4.7
Cc1cc(C)n(CC(=O)N2CCN(c3ccccc3C(=O)Nc3cncc(Cl)c3)CC2)n1 [N-(5-Chloro-pyridin-3-yl)-2-{4-[2-(3,5-dimethyl-pyrazol-1-yl)-acetyl]-piperazin-1-yl}-benzamide] | 7.6
CS(=O)(=O)c1ccc(NC(=O)c2ccccc2N2CCN(C(=O)Cn3ccc4cccnc43)CC2)cc1 [N-(4-Methanesulfonyl-phenyl)-2-[4-(2-pyrrolo[2,3-b]pyridin-1-yl-acetyl)-piperazin-1-yl]-benzamide] | 7.4
O=C(Nc1cccnc1)c1ccccc1N1CCN(C(=O)Cn2ccc3cccnc32)CC1 [N-Pyridin-3-yl-2-[4-(2-pyrrolo[2,3-b]pyridin-1-yl-acetyl)-piperazin-1-yl]-benzamide] | 4.6
Cc1nn(C)c(C)c1CC(=O)N1CCN(c2ccccc2C(=O)Nc2ccncc2)CC1 [N-Pyridin-4-yl-2-{4-[2-(1,3,5-trimethyl-1H-pyrazol-4-yl)-acetyl]-piperazin-1-yl}-benzamide] | 19.5
Cc1cc(C)n(CC(=O)N2CCN(c3ccccc3C(=O)Nc3ccccc3)CC2)n1 [2-{4-[2-(3,5-Dimethyl-pyrazol-1-yl)-acetyl]-piperazin-1-yl}-N-phenyl-benzamide] | 13
Cc1cc(C)n(CC(=O)N2CCN(c3ccccc3C(=O)Nc3nc(C(C)(C)C)cs3)CC2)n1 [N-(4-tert-Butyl-thiazol-2-yl)-2-{4-[2-(3,5-dimethyl-pyrazol-1-yl)-acetyl]-piperazin-1-yl}-benzamide] | 15
O=C(Nc1ccnc(C(F)(F)F)c1)c1ccccc1N1CCN(C(=O)CN2CCCCC2=O)CC1 [2-{4-[2-(2-Oxo-piperidin-1-yl)-acetyl]-piperazin-1-yl}-N-(2-trifluoromethyl-pyridin-4-yl)-benzamide] | 11
Cc1cc(C)n(CC(=O)N2CCN(c3ccccc3C(=O)Nc3nc4c(s3)CCCC4)CC2)n1 [2-{4-[2-(3,5-Dimethyl-pyrazol-1-yl)-acetyl]-piperazin-1-yl}-N-(4,5,6,7-tetrahydro-benzothiazol-2-yl)-benzamide] | 12
Cc1nc2ccccc2c(=O)n1CC(=O)N1CCN(c2ccccc2C(=O)Nc2ccncc2)CC1 [2-{4-[2-(2-Methyl-4-oxo-4H-quinazolin-3-yl)-acetyl]-piperazin-1-yl}-N-pyridin-4-yl-benzamide] | 8.6
Cc1cc(C)n(CC(=O)N2CCN(c3ccc(Cl)cc3C(=O)Nc3nc4c(s3)CN(C)CC4)CC2)n1 [5-Chloro-2-{4-[2-(3,5-dimethyl-pyrazol-1-yl)-acetyl]-piperazin-1-yl}-N-(5-methyl-4,5,6,7-tetrahydro-thiazolo[5,4-c]pyridin-2-yl)-benzamide] | 15
Cc1cc(C)n(CC(=O)N2CCN(c3ncc(Cl)cc3NC(=O)c3cccc(C(F)(F)F)c3)CC2)n1 [N-(5-Chloro-2-{4-[2-(3,5-dimethyl-pyrazol-1-yl)-acetyl]-piperazin-1-yl}-pyridin-3-yl)-3-trifluoromethyl-benzamide] | 10.6
COc1ccc(C(=O)NCC(=O)N2CCN(c3ncc(Cl)cc3NC(=O)c3cccc(C(F)(F)F)c3)CC2)cc1OC [N-(2-{4-[5-Chloro-3-(3-trifluoromethyl-benzoylamino)-pyridin-2-yl]-piperazin-1-yl}-2-oxo-ethyl)-3,4-dimethoxy-benzamide] | 8.8
COc1cc(NC(=O)c2ccccc2N2CCN(C(=O)CN3CCCCC3=O)CC2)ccn1 [N-(2-Methoxy-pyridin-4-yl)-2-{4-[2-(2-oxo-piperidin-1-yl)-acetyl]-piperazin-1-yl}-benzamide] | 4.4
O=C(Nc1ccncc1)c1ccccc1N1CCN(C(=O)Cn2ncc3ccccc3c2=O)CC1 [2-{4-[2-(1-Oxo-1H-phthalazin-2-yl)-acetyl]-piperazin-1-yl}-N-pyridin-4-yl-benzamide] | 6.1
CN1CCc2nc(NC(=O)c3cc(F)ccc3N3CCN(C(=O)CN4Cc5ccccc5C4=O)CC3)sc2C1 [5-Fluoro-N-(5-methyl-4,5,6,7-tetrahydro-thiazolo[5,4-c]pyridin-2-yl)-2-{4-[2-(1-oxo-1,3-dihydro-isoindol-2-yl)-acetyl]-piperazin-1-yl}-benzamide] | 8.1

More lines, now with the values ahead:

IC50 [nM] | SMILES
6.3 | N#Cc1ccc(NC(=O)c2ccccc2N2CCN(C(=O)Cn3ccc4cccnc43)CC2)cn1 [N-(6-Cyano-pyridin-3-yl)-2-[4-(2-pyrrolo[2,3-b]pyridin-1-yl-acetyl)-piperazin-1-yl]-benzamide]
16 | Cc1nn(-c2ccccc2)c(C)c1CC(=O)N1CCN(c2ccccc2C(=O)Nc2ccncc2)CC1 [2-{4-[2-(3,5-Dimethyl-1-phenyl-1H-pyrazol-4-yl)-acetyl]-piperazin-1-yl}-N-pyridin-4-yl-benzamide]
4.1 | Cc1cc(C)n(CC(=O)N2CCN(c3ccccc3C(=O)Nc3ccnc(Br)c3)CC2)n1 [N-(2-Bromo-pyridin-4-yl)-2-{4-[2-(3,5-dimethyl-pyrazol-1-yl)-acetyl]-piperazin-1-yl}-benzamide]
7 | Cc1nc(CC(=O)N2CCN(c3ccccc3C(=O)Nc3ccncc3)CC2)c(C)s1 [2-{4-[2-(2,5-Dimethyl-thiazol-4-yl)-acetyl]-piperazin-1-yl}-N-pyridin-4-yl-benzamide]
25 | CS(=O)(=O)c1ccc(NC(=O)c2ccccc2N2CCN(C(=O)Cn3c(C(=O)O)cc4cc(Cl)ccc43)CC2)cc1 [5-Chloro-1-(2-{4-[2-(4-methanesulfonyl-phenylcarbamoyl)-phenyl]-piperazin-1-yl}-2-oxo-ethyl)-1-H-indole-2-carboxylic acid]
11.5 | Cc1cc(C)n(CC(=O)N2CCN(c3ncc(Cl)cc3NC(=O)c3cccc(Cl)c3)CC2)n1 [3-Chloro-N-(5-chloro-2-{4-[2-(3,5-dimethyl-pyrazol-1-yl)-acetyl]-piperazin-1-yl}-pyridin-3-yl)-benzamide]
8.5 | Cc1cc(C)n(CC(=O)N2CCN(c3ccccc3C(=O)Nc3ccnc(C(C)(C)C)c3)CC2)n1 [N-(2-tert-Butyl-pyridin-4-yl)-2-{4-[2-(3,5-dimethyl-pyrazol-1-yl)-acetyl]-piperazin-1-yl}-benzamide]
19.5 | COc1ccc(C(=O)NCC(=O)N2CCN(c3ccccc3C(=O)Nc3cccnc3)CC2)cc1F [3-Fluoro-4-methoxy-N-(2-oxo-2-{4-[2-(pyridin-3-ylcarbamoyl)-phenyl]-piperazin-1-yl}-ethyl)-benzamide]
14 | Cc1cc(C)n(CC(=O)N2CCN(c3ccccc3C(=O)Nc3ccnc(N4CCN(C)CC4)c3)CC2)n1 [2-{4-[2-(3,5-Dimethyl-pyrazol-1-yl)-acetyl]-piperazin-1-yl}-N-[2-(4-methyl-piperazin-1-yl)-pyridin-4-yl]-benzamide]
4.2 | COc1ccc(C(=O)NCC(=O)N2CCN(c3ccccc3C(=O)Nc3ccncc3)CC2)cc1F [3-Fluoro-4-methoxy-N-(2-oxo-2-{4-[2-(pyridin-4-ylcarbamoyl)-phenyl]-piperazin-1-yl}-ethyl)-benzamide]
